According to article PMC8694140, “Synthesis and photobiological applications of naphthalimide–benzothiazole conjugates: cytotoxicity and topoisomerase IIα inhibition” (RSC Advances, 2021):

What was measured:
[1] = test system: HeLa (cervix) human cancer cell line; assay: MTT cytotoxicity assay, HeLa; type: cell-based; details: 48 h
Procedure: (§1) Human malignant cell lines, i.e., MCF7 (breast), HeLa (cervix), and A549 (lung), as well as non-cancerous human cell line Hek293 (kidney), were cultured using the Ham's media or DMEM having 10% FBS, […] streptomycin, 100 U ml^−1 penicillin, and 50 mM glutamine. For seeding of cells, 96 well plates were used, maintaining the density of […] cells per well with the help of DMEM as a media having 10% FBS cells. Then, seeded cells were incubated in an incubator having a 5% CO2 supply at 37 °C. Compounds were added to the wells at 1, 10, and 100 μM concentrations, and cells were incubated for 48 h at 37 °C and then added 10 μl of MTT to each well prepared from 5 mg ml^−1 stock solution using 1 × PBS buffer and were incubated for 4 h at 37 °C in the dark. DMSO (100 μl) was used to dissolve the formazan crystals. To determine the concentration of formazan, the crystal absorbance difference was recorded at 570 nm. The percentage of relative cell toxicity was calculated by using the following eqn (1):1 [drawing 1]

[2] = test system: MCF7 (breast) human cancer cell line; assay: MTT cytotoxicity assay, MCF7; type: cell-based
Procedure: as §1

[3] = test system: A549 (lung) human cancer cell line; assay: MTT cytotoxicity assay, A549; type: cell-based
Procedure: as §1

[4] = test system: Hek293 (kidney) human noncancerous cell line; assay: MTT cytotoxicity assay, normal cells Hek293; type: cell-based; details: read-out: growth inhibition of Hek293
Procedure: To evaluate the safety, the cytotoxic effect of all compounds (7–22) against Hek293 (kidney) human noncancerous cell line was also evaluated using a colorimetric assay (MTT assay) at the concentration level of 10 μM.
as §1

Row | Compound | melting point [°C] | IC50 [1] [µM] | IC50 ([2]; 48 h) [µM] | IC50 ([3]; 48 h) [µM] | inhibition at 10 µM [4] [%] | IC50 ([1]; Homo sapiens) [µM] | IC50 ([2]; Homo sapiens, MCF7, 48 h) [µM] | IC50 ([3]; Homo sapiens, A549, 48 h) [µM]
1 | 6-(3-(Benzo[d]thiazol-2-yl)-1-propyl-1H-indol-5-yl)-2-(4-fluorophenyl)-1H-benzo[de]isoquinoline-1,3(2H)-dione [Compound 21] |  | 3.96 ± 0.16 | 4.1 ± 0.23 | 0.63 ± 0.08 |  |  |  | 
2 | C=CCn1cc(-c2nc3ccccc3s2)c2cc(-c3ccc4c5c(cccc35)C(=O)N(CCN(C)C)C4=O)ccc21 [Compound 10, 6-(1-Allyl-3-(benzo[d]thiazol-2-yl)-1H-indol-5-yl)-2-(2-(dimethylamino)ethyl)-1H-benzo[de] isoquinoline-1,3(2H)-dione] | 274 to 277 |  |  |  |  | 3.4 ± 0.13 | 3.31 ± 0.11 | 1.02 ± 0.08
3 | COc1cc([C@@H]2c3cc4c(cc3[C@@H](O[C@@H]3O[C@@H]5CO[C@@H](C)O[C@H]5[C@H](O)[C@H]3O)[C@H]3COC(=O)[C@H]23)OCO4)cc(OC)c1O [Etoposide, reference compound] |  |  |  |  |  | 1.89 ± 0.19 | 0.33 ± 0.13 | 0.1 ± 0.02
4 | C=CCn1cc(-c2nc3ccccc3s2)c2cc(-c3ccc4c5c(cccc35)C(=O)N(Nc3ccccc3)C4=O)ccc21 [Compound 18, 6-(1-Allyl-3-(benzo[d]thiazol-2-yl)-1H-indol-5-yl)-2-(phenylamino)-1H-benzo[de]isoquinoline-1,3(2H)-dione] |  |  |  |  |  | 3.96 ± 0.2 | 3.58 ± 0.14 | 0.96 ± 0.12
5 | C=CCn1cc(-c2nc3ccccc3s2)c2cc(-c3ccc4c5c(cccc35)C(=O)N(CCN(CC)CC)C4=O)ccc21 [Compound 11, 6-(1-Allyl-3-(benzo[d]thiazol-2-yl)-1H-indol-5-yl)-2-(2-(diethylamino)ethyl)-1H-benzo[de] isoquinoline-1,3(2H)-dione] | 281 to 284 |  |  |  | ~2 | 3.07 ± 0.17 | 3.57 ± 0.21 | 0.81 ± 0.05
6 | CCCn1cc(-c2nc3ccccc3s2)c2cc(-c3ccc4c5c(cccc35)C(=O)N(N)C4=O)ccc21 [Compound 22, 2-Amino-6-(3-(benzo[d]thiazol-2-yl)-1-propyl-1H-indol-5-yl)-1H-benzo[de]isoquinoline-1,3(2H)-dione] |  |  |  |  |  | 8.59 ± 0.28 | 5.84 ± 0.28 | 0.84 ± 0.07
7 | C=CCN1C(=O)c2cccc3c(-c4ccc5c(c4)c(-c4nc6ccccc6s4)cn5CC=C)ccc(c23)C1=O [Compound 15, 2-Allyl-6-(1-allyl-3-(benzo[d]thiazol-2-yl)-1H-indol-5-yl)-1H-benzo[de]isoquinoline-1,3(2H)-dione] |  |  |  |  |  | 2.71 ± 0.09 | 0.38 ± 0.06 | 1.89 ± 0.15
8 | C=CCn1cc(-c2nc3ccccc3s2)c2cc(-c3ccc4c5c(cccc35)C(=O)OC4=O)ccc21 [Compound 7, 6-(1-Allyl-3-(benzo[d]thiazol-2-yl)-1H-indol-5-yl)-1H,3H-benzo[de]isochromene-1,3-dione] | 255 to 258 |  |  |  |  | 7.18 ± 0.28 | 6.94 ± 0.16 | 0.45 ± 0.04
9 | C=CCn1cc(-c2nc3ccccc3s2)c2cc(-c3ccc4c5c(cccc35)C(=O)N(CCCC)C4=O)ccc21 [Compound 8, 6-(1-Allyl-3-(benzo[d]thiazol-2-yl)-1H-indol-5-yl)-2-butyl-1H-benzo[de]isoquinoline-1,3(2H)-dione] | 277 to 280 |  |  |  |  | 5.52 ± 0.15 | 7.69 ± 0.2 | 1.19 ± 0.11
10 | C=CCn1cc(-c2nc3ccccc3s2)c2cc(-c3ccc4c5c(cccc35)C(=O)N(CCN)C4=O)ccc21 [Compound 9, 6-(1-Allyl-3-(benzo[d]thiazol-2-yl)-1H-indol-5-yl)-2-(2-aminoethyl)-1H-benzo[de]isoquinoline-1,3(2H)-dione] |  |  |  |  | 17 | 4.02 ± 0.18 | 4.17 ± 0.13 | 3.06 ± 0.13

Further lines, with some results ahead:

Row | melting point [°C] | Compound | IC50 [1] [µM] | IC50 ([2]; 48 h) [µM] | IC50 ([3]; 48 h) [µM] | inhibition at 10 µM [4] [%] | IC50 ([1]; Homo sapiens) [µM] | IC50 ([2]; Homo sapiens, MCF7, 48 h) [µM] | IC50 ([3]; Homo sapiens, A549, 48 h) [µM]
11 | 294 to 297 | C=CCn1cc(-c2nc3ccccc3s2)c2cc(-c3ccc4c5c(cccc35)C(=O)N(CCN3CCNCC3)C4=O)ccc21 [Compound 20, 6-(1-Allyl-3-(benzo[d]thiazol-2-yl)-1H-indol-5-yl)-2-(2-(piperazin-1-yl)ethyl)-1H-benzo[de] isoquinoline-1,3(2H)-dione] |  |  |  | 18 | 3.45 ± 0.13 | 3.35 ± 0.16 | 0.76 ± 0.04
12 | 285 to 288 | C=CCn1cc(-c2nc3ccccc3s2)c2cc(-c3ccc4c5c(cccc35)C(=O)N(CCN3CCOCC3)C4=O)ccc21 [Compound 14, 6-(1-Allyl-3-(benzo[d]thiazol-2-yl)-1H-indol-5-yl)-2-(2-morpholinoethyl)-1H-benzo[de]isoquinoline-1,3(2H)-dione] |  |  |  |  | 3.93 ± 0.11 | 3.69 ± 0.09 | 1.11 ± 0.06
13 | 285 to 288 | C=CCn1cc(-c2nc3ccccc3s2)c2cc(-c3ccc4c5c(cccc35)C(=O)N(C3CCCCC3)C4=O)ccc21 [Compound 19, 6-(1-Allyl-3-(benzo[d]thiazol-2-yl)-1H-indol-5-yl)-2-cyclohexyl-1H-benzo[de]isoquinoline-1,3(2H)-dione] |  |  |  |  | 3.33 ± 0.11 | 1.65 ± 0.11 | 1.47 ± 0.12
14 | 281 to 284 | C=CCn1cc(-c2nc3ccccc3s2)c2cc(-c3ccc4c5c(cccc35)C(=O)N(Cc3ccccc3)C4=O)ccc21 [Compound 17, 6-(1-Allyl-3-(benzo[d]thiazol-2-yl)-1H-indol-5-yl)-2-benzyl-1H-benzo[de]isoquinoline-1,3(2H)-dione] |  |  |  |  | 4.17 ± 0.21 | 4.39 ± 0.23 | 2.01 ± 0.09
15 | 277 to 280 | C=CCn1cc(-c2nc3ccccc3s2)c2cc(-c3ccc4c5c(cccc35)C(=O)NC4=O)ccc21 [Compound 16, 6-(1-Allyl-3-(benzo[d]thiazol-2-yl)-1H-indol-5-yl)-1H-benzo[de]isoquinoline-1,3(2H)-dione] |  |  |  |  | 3.61 ± 0.19 | 3.57 ± 0.08 | 1.91 ± 0.1
